Experimental data taken from US20250288683A1, “TETRAHYDROISOQUINOLINE HETEROBIFUNCTIONAL BCL-XL DEGRADERS” (Treeline Biosciences, Inc., priority 2022, published 2025).

Biological target: T1, Human BCL-XL protein (N-terminal HiBiT tagged BCL-XL in HT1080 cells) (Homo sapiens, UniProt Q07817)
T1 construct: expressed in transfected cells; host or cells: HT-1080 (ATCC CCL-121), stably transduced with lentivirus pLV-UBC-N-HiBiT-BCL-XL-PGK-puro and selected with puromycin
Test: HiBiT based degradation assay
Format: cell-based
Settings: HT1080 cells expressing N-terminal HiBiT tagged BCL-XL, 24 h, normalized with DMSO control
Text: HiBiT Based Degradation Assay
Human BCL-XL protein coding open reading frame fused with N-terminal HiBiT coding sequence was synthesized from Integrated DNA Technologies (IDT). Next, N-HiBiT-BCL-XL sequence was cloned into pLV-UBC-PGK-Puro, a lentivirus plasmid purchased from Vectorbuilder, to generate pLV-UBC-N-HiBiT-BCL-XL-PGK-puro. Lentiviral particles were generated from Lenti-X™ 293T cells (Clontech) by co-transfection of pLV-UBC-N-HiBiT-BCL-XL-PGK-puro plasmids and lentiviral packaging plasmid mix (Cellecta). HT-1080 [HT1080](ATCC CCL-121) cells were infected with the lentivirus, and HT1080 cells stably integrated with the lentiviral vectors were established by incubation with 1 μg/mL puromycin (Thermofisher).
HT1080 cells expressing N-terminal HiBiT tagged BCL-XL were dispensed into a 384-well plate pre-spotted with compounds at varying concentrations. Three thousand cells were seeded into each well in 40 μL of RPMI 1640 media. […] After incubation, luminescence was read on a PHERAstar FSX Plate Reader (BMG). BCL-XL degradation at each indicated concentration was normalized with the DMSO control. The BCL-XL degradation curves were plotted using a four-parameter logistic model. For compounds displaying hook effects, the curve fitting was performed using the bottom point of the hook curves (i.e., the point of Ymin) as the bottom plateau to calculate EC50.

T1 sequence (Q07817 whole entry): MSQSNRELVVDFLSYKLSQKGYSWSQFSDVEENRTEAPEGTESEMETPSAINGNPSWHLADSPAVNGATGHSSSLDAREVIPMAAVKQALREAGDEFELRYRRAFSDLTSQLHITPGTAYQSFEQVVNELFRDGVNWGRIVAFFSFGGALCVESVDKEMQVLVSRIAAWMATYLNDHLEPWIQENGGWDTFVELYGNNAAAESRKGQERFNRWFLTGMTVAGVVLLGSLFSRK

SMILES	Ymin (24 h)
Cc1ncsc1-c1ccc([C@H](C)NC(=O)[C@@H]2C[C@@H](O)CN2C(=O)[C@@H](NC(=O)C[C@H]2CC[C@@H](Oc3cccc(-c4ccc(N5CCc6cccc(C(=O)Nc7nc8ccccc8s7)c6C5)nc4C(=O)O)c3C)CC2)C(C)(C)C)cc1 [Compound 116b, 6-(8-(benzo[d]thiazol-2-ylcarbamoyl)-3,4-dihydroisoquinolin-2 (1H)-yl)-3-(3-(((1R,4s)-4-(2-(((S)-1-((2S,4R)-4-hydroxy-2-(((S)-1-(4-(4-methylthiazol-5-yl)phenyl)ethyl)carbamoyl)pyrrolidin-1-yl)-3,3-dimethyl-1-oxobutan-2-yl)amino)-2-oxoethyl)cyclohexyl)oxy)-2-methylphenyl)picolinic acid]	B (50% ≤ Ymin < 70%)
Cc1ncsc1-c1ccc([C@H](C)NC(=O)[C@@H]2C[C@@H](O)CN2C(=O)[C@@H](NC(=O)C(F)(F)C[C@H]2CC[C@H](Oc3cccc(-c4ccc(N5CCc6cccc(C(=O)Nc7nc8ccccc8s7)c6C5)nc4C(=O)O)c3C)CC2)C(C)(C)C)cc1 [Compound 117a, 6-(8-(benzo[d]thiazol-2-ylcarbamoyl)-3,4-dihydroisoquinolin-2 (1H)-yl)-3-(3-(((1S,4r)-4-(2,2-difluoro-3-(((S)-1-((2S,4R)-4-hydroxy-2-(((S)-1-(4-(4-methylthiazol-5-yl)phenyl)ethyl)carbamoyl)pyrrolidin-1-yl)-3,3-dimethyl-1-oxobutan-2-yl)amino)-3-oxopropyl)cyclohexyl)oxy)-2-methylphenyl)picolinic acid]	B (50% ≤ Ymin < 70%)
CC(=O)O[C@@H]1C[C@@H](C(=O)N[C@@H](C)c2ccc(-c3scnc3C)cc2)N(C(=O)[C@@H](NC(=O)CCCc2ccc(Oc3cccc(-c4ccc(N5CCc6cccc(C(=O)Nc7nc8ccccc8s7)c6C5)nc4C(=O)O)c3C)cc2)C(C)(C)C)C1 [Compound 118a, 3-[3-[4-[4-[[(1S)-1-[(2S,4R)-4-acetoxy-2-[[(1S)-1-[4-(4-methylthiazol-5-yl)phenyl]ethyl]carbamoyl]pyrrolidine-1-carbonyl]-2,2-dimethyl-propyl]amino]-4-oxo-butyl]phenoxy]-2-methyl-phenyl]-6-[8-(1,3-benzothiazol-2-ylcarbamoyl)-3,4-dihydro-1H-isoquinolin-2-yl]pyridine-2-carboxylic acid]	B (50% ≤ Ymin < 70%)
CC(=O)O[C@@H]1C[C@@H](C(=O)N[C@@H](C)c2ccc(-c3scnc3C)cc2)N(C(=O)[C@@H](NC(=O)C[C@H]2CC[C@H](Oc3cccc(-c4ccc(N5CCc6cccc(C(=O)Nc7nc8ccccc8s7)c6C5)nc4C(=O)O)c3C)CC2)C(C)(C)C)C1 [Compound 119a, 3-(3-(((1S,4r)-4-(2-(((S)-1-((2S,4R)-4-acetoxy-2-(((S)-1-(4-(4-methylthiazol-5-yl)phenyl)ethyl)carbamoyl)pyrrolidin-1-yl)-3,3-dimethyl-1-oxobutan-2-yl)amino)-2-oxoethyl)cyclohexyl)oxy)-2-methylphenyl)-6-(8-(benzo[d]thiazol-2-ylcarbamoyl)-3,4-dihydroisoquinolin-2 (1H)-yl)picolinic acid]	B (50% ≤ Ymin < 70%)
Cc1ncsc1-c1ccc([C@H](C)NC(=O)[C@@H]2C[C@@H](O)CN2C(=O)[C@@H](NC(=O)CN2CCC(Oc3cccc(-c4ccc(N5CCc6cccc(C(=O)Nc7nc8ccccc8s7)c6C5)nc4C(=O)O)c3C)CC2)C(C)(C)C)cc1 [Compound 122a, 6-[8-(1,3-benzothiazol-2-ylcarbamoyl)-3,4-dihydro-1H-isoquinolin-2-yl]-3-[3-[[1-[2-[[(1S)-1-[(2S,4R)-4-hydroxy-2-[[(1S)-1-[4-(4-methylthiazol-5-yl)phenyl]ethyl]carbamoyl]pyrrolidine-1-carbonyl]-2,2-dimethyl-propyl]amino]-2-oxo-ethyl]-4-piperidyl]oxy]-2-methyl-phenyl]pyridine-2-carboxylic acid]	B (50% ≤ Ymin < 70%)
Cc1ncsc1-c1ccc([C@H](C)NC(=O)[C@@H]2C[C@@H](O)CN2C(=O)[C@@H](NC(=O)CN2CCC(CCOc3cccc(-c4ccc(N5CCc6cccc(C(=O)Nc7nc8ccccc8s7)c6C5)nc4C(=O)O)c3C)CC2)C(C)(C)C)cc1 [Compound 123a, 6-(8-(benzo[d]thiazol-2-ylcarbamoyl)-3,4-dihydroisoquinolin-2 (1H)-yl)-3-(3-(2-(1-(2-(((S)-1-((2S,4R)-4-hydroxy-2-(((S)-1-(4-(4-methylthiazol-5-yl)phenyl)ethyl)carbamoyl)pyrrolidin-1-yl)-3,3-dimethyl-1-oxobutan-2-yl)amino)-2-oxoethyl)piperidin-4-yl)ethoxy)-2-methylphenyl)picolinic acid]	A (Ymin < 50%)

Now from value to compound:

Ymin (24 h)	SMILES
A (Ymin < 50%)	Cc1ncsc1-c1ccc([C@@H](NC(=O)[C@@H]2C[C@@H](O)CN2C(=O)[C@@H](NC(=O)CCCc2ccc(Oc3cccc(-c4ccc(N5CCc6cccc(C(=O)Nc7nc8ccccc8s7)c6C5)nc4C(=O)O)c3C)cc2)C(C)(C)C)C(F)(F)F)cc1 [Compound 120a, 6-[8-(1,3-benzothiazol-2-ylcarbamoyl)-3,4-dihydro-1H-isoquinolin-2-yl]-3-[3-[4-[4-[[(1S)-1-[(2S,4R)-4-hydroxy-2-[[(1R)-2,2,2-trifluoro-1-[4-(4-methylthiazol-5-yl)phenyl]ethyl]carbamoyl]pyrrolidine-1-carbonyl]-2,2-dimethyl-propyl]amino]-4-oxo-butyl]phenoxy]-2-methyl-phenyl]pyridine-2-carboxylic acid]
A (Ymin < 50%)	Cc1ncsc1-c1ccc([C@H](C)NC(=O)[C@@H]2C[C@@H](O)CN2C(=O)[C@@H](NC(=O)CCCc2ccc(Oc3cccc(-c4ccc(N5CCc6cccc(C(=O)Nc7nc8ccccc8s7)c6C5)nc4C(=O)O)c3C)cc2)C(C)(C)C)nc1 [Compound 121a, 6-[8-(1,3-benzothiazol-2-ylcarbamoyl)-3,4-dihydro-1H-isoquinolin-2-yl]-3-[3-[4-[4-[[(1S)-1-[(2S,4R)-4-hydroxy-2-[[(1S)-1-[5-(4-methylthiazol-5-yl)-2-pyridyl]ethyl]carbamoyl]pyrrolidine-1-carbonyl]-2,2-dimethyl-propyl]amino]-4-oxo-butyl]phenoxy]-2-methyl-phenyl]pyridine-2-carboxylic acid]
A (Ymin < 50%)	Cc1ncsc1-c1ccc([C@H](C)NC(=O)[C@@H]2C[C@@H](O)CN2C(=O)[C@@H](NC(=O)CN2CCC(CCCOc3cccc(-c4ccc(N5CCc6cccc(C(=O)Nc7nc8ccccc8s7)c6C5)nc4C(=O)O)c3C)CC2)C(C)(C)C)cc1 [Compound 124a, 6-[8-(1,3-benzothiazol-2-ylcarbamoyl)-3,4-dihydro-1H-isoquinolin-2-yl]-3-[3-[3-[1-[2-[[(1S)-1-[(2S,4R)-4-hydroxy-2-[[(1S)-1-[4-(4-methylthiazol-5-yl)phenyl]ethyl]carbamoyl]pyrrolidine-1-carbonyl]-2,2-dimethyl-propyl]amino]-2-oxo-ethyl]-4-piperidyl]propoxy]-2-methyl-phenyl]pyridine-2-carboxylic acid]
